Laboratory results reported in patent publication US12667572B2, “Tricyclic compounds useful in the treatment of cancer, autoimmune and inflammatory disorders” (SCHRÖDINGER, INC., priority 2021, dated 2026).

Molecular target: T1, full-length MALT1 protein His-MALT1(1-824) (Homo sapiens, UniProt Q9UDY8)
T1 construct: full-length MALT1 protein His-MALT1(1-824); His (N); made in house; host or cells: baculovirus-infected insect cells
T1 sequence (Q9UDY8 1-824): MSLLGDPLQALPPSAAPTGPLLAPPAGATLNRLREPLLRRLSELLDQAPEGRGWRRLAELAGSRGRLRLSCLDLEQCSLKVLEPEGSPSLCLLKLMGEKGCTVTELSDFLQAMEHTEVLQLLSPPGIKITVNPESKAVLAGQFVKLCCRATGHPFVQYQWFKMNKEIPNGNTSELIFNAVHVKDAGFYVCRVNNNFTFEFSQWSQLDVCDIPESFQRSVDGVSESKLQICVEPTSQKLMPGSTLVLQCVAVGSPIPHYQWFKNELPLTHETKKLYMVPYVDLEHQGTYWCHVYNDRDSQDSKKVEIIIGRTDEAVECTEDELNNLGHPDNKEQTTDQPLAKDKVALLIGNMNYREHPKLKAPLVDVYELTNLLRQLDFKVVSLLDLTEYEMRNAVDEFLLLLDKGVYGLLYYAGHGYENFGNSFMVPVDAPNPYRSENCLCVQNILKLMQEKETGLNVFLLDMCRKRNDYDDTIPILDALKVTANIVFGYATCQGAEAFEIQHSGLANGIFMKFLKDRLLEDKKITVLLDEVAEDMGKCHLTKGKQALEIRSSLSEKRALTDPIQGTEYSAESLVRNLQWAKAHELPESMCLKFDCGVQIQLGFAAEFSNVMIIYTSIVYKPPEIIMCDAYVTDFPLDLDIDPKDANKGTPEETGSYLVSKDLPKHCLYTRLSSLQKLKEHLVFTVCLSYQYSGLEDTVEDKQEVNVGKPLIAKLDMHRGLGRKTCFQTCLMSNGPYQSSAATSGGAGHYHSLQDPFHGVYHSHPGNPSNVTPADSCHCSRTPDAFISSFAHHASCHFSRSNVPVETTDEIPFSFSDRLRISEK
Assay: MALT1 protease assay, Assay 2 (1 nM MALT1, Ac-LRSR-AMC substrate)
Assay type: biochemical
Settings: 1 nM MALT1, 50 μM Ac-LRSR-AMC, 2 h pre-incubation, 8 hr incubation at RT
Description: MALT1 protease activity was assessed in an in vitro assay using a tetrapeptide as substrate and full-length MALT1 protein His-MALT1(1-824) purified from baculovirus-infected insect cells. The tetrapeptide substrate is Ac-LRSR-AMC (SM Biochemicals) with Km measured at around 100 μM.
The final assay buffer includes 1 nM (Assay 2) or 2 nM (Assay 1) of MALT1 full-length protein, 50 μM Ac-LRSR-AMC substrate, 50 mM Tris pH 7.5, 600 mM Sodium Citrate, 1 mM DTT, 1 mM EDTA, and 0.05% BSA in 384-well plate format using black microtiter square well plates (Optiplate 384-F, Perkin Elmer).
Test compounds were dissolved in 100% DMSO at stock of 10 mM, with final DMSO concentration 0.1%. Test compounds were pre-incubated with MALT1 protein for 2 h at room temperature. Substrate was added after the pre-incubation and fluorescence signal was measured using Envision at excitation 355 nm and emission 460 nm after 8 hr incubation at RT. Increase in the assay signal was linear over this period and proportional with increase in the enzyme content.
The fluorescence units were transformed to percentage of remaining activity by using the high control (HC, median of fluorescence signal from wells containing MALT1 protein, substrate, and DMSO) and low control (LC, median of fluorescence signal from wells with substrate only) with the formula below: […]
IC50 and Hill coefficients were obtained using Graph Pad Prism (Graph Pad software, Inc, USA) with non-linear regression analysis.

Row | SMILES | IC50 [nM]
1 | O=C(Nc1cnc(-n2nccn2)c(C(F)(F)F)c1)[C@H]1C[C@@]2(CCO2)c2c1cnc1cc(Cl)nn21 (racemic) [Example 116, (trans)-N-(6-(2H-1,2,3-triazol-2-yl)-5˜(trifluoromethyl)pyridin-3-yl)-2-chloro-6,7-dihydrospiro[cyclopenta[e]pyrazolo[1,5-a]pyrimidine-8,2′-oxetane]-6-carboxamide] | 100 to 1000
2 | C[C@H](O)c1cnn(-c2ncc(NC(=O)[C@@H]3CC(C)(C)c4c3cnc3cc(Cl)nn43)cc2Cl)n1 (single isomer, unassigned) [Example 50, 2-chloro-N-(5-chloro-6-(4-(1-hydroxyethyl)-2H-1,2,3-triazol-2-yl)pyridin-3-yl)-8,8-dimethyl-7,8-dihydro-6H-cyclopenta[e]pyrazolo[1,5-a]pyrimidine-6-carboxamide] | ≥ 1000
3 | O=C(Nc1cnc(-n2nccn2)c(Cl)c1)[C@@H]1CC2(CC2)c2c1cnc1cc(F)nn21 (single isomer, unassigned) [Example 94, N-(5-chloro-6-(2H-1,2,3-triazol-2-yl)pyridin-3-yl)-2-fluoro-6,7-dihydrospiro[cyclopenta[e]pyrazolo[1,5-a]pyrimidine-8,1′-cyclopropane]-6-carboxamide] | 10 to 100
4 | CNC(=O)c1ncc(NC(=O)C2CC(C)(C)c3c2cnc2cc(Cl)nn32)cc1C(F)(F)F (single isomer, unassigned) [Example 155, 2-chloro-8,8-dimethyl-N-(6-(methylcarbamoyl)-5-(trifluoromethyl)pyridin-3-yl)-7,8-dihydro-6H-cyclopenta[e]pyrazolo[1,5-a]pyrimidine-6-carboxamide] | 10 to 100
5 | CC1(C)CC(C(=O)Nc2cnc(-n3ncnn3)c(Cl)c2)c2cnc3cc(Cl)nn3c21 (stereo not shown) [Example 120, 2-chloro-N-(5-chloro-6-(2H-tetrazol-2-yl)pyridin-3-yl)-8,8-dimethyl-7,8-dihydro-6H-cyclopenta[e]pyrazolo[1,5-a]pyrimidine-6-carboxamide] | 10 to 100
6 | CC1(C)CC(C(=O)Nc2cnc(N3CCC3=O)c(Cl)c2)c2cnc3cc(F)nn3c21 (stereo not shown) [Example 176, N-(5-chloro-6-(2-oxoazetidin-1-yl)pyridin-3-yl)-2-fluoro-8,8-dimethyl-7,8-dihydro-6H-cyclopenta[e]pyrazolo[1,5-a]pyrimidine-6-carboxamide] | 100 to 1000
7 | CC1(C)C[C@](C)(C(=O)Nc2cnc(-n3nccn3)c(Cl)c2)c2cnc3cc(Cl)nn3c21 (single isomer, unassigned) [Example 138, 2-chloro-N-(5-chloro-6-(2H-1,2,3-triazol-2-yl)pyridin-3-yl)-6,8,8-trimethyl-7,8-dihydro-6H-cyclopenta[e]pyrazolo[1,5-a]pyrimidine-6-carboxamide] | ≥ 1000
8 | CC1(C)CC(C(=O)Nc2cc(C(F)F)c(-c3cc[nH]n3)c(=O)[nH]2)c2cnc3cc(Cl)nn3c21 (stereo not shown) [Example 43, 2-chloro-N-(4-(difluoromethyl)-6-oxo-5˜(1H-pyrazol-3-yl)-1,6-dihydropyridin-2-yl)-8,8-dimethyl-7,8-dihydro-6H-cyclopenta[e]pyrazolo[1,5a]pyrimidine-6-carboxamide] | 10 to 100
9 | CC1(C)C[C@@H](C(=O)Nc2ccnc(C(F)(F)F)c2)c2cnn3cc(C(F)F)nc3c21 (single isomer, unassigned) [Example 200, 2-(difluoromethyl)-9,9-dimethyl-N-(2-(trifluoromethyl)pyridin-4-yl)-8,9-dihydro-7H-cyclopenta[d]imidazo[1,2-b]pyridazine-7-carboxamide] | 100 to 1000
10 | CC1(C)CC(C(=O)Nc2cnc(C(=O)N3CCC3)c(C(F)(F)F)c2)c2cnc3cc(Cl)nn3c21 (stereo not shown) [Example 118, N-(6-(azetidine-1-carbonyl)-5˜(trifluoromethyl)pyridin-3-yl)-2-chloro-8,8-dimethyl-7,8-dihydro-6H-cyclopenta[e]pyrazolo[1,5-a]pyrimidine-6-carboxamide] | 10 to 100
11 | Cn1nnnc1-c1ncc(NC(=O)[C@@H]2CC(C)(C)c3c2cnc2cc(Cl)nn32)cc1Cl (single isomer, unassigned) [Example 144, 2-chloro-N-(5-chloro-6-(1-methyl-1H-tetrazol-5-yl)pyridin-3-yl)-8,8-dimethyl-7,8-dihydro-6H-cyclopenta[e]pyrazolo[1,5-a]pyrimidine-6-carboxamide] | 10 to 100
12 | CC1(C)CC(C(=O)Nc2cnc(OC(F)F)c(C#N)n2)c2cnc3cc(F)nn3c21 (single isomer, unassigned) [Example 86, N-(6-cyano-5-(difluoromethoxy)pyrazin-2-yl)-2-fluoro-8,8-dimethyl-7,8-dihydro-6H-cyclopenta[e]pyrazolo[1,5-a]pyrimidine-6-carboxamide] | ≥ 1000
13 | Cn1nnc(-c2ncc(NC(=O)C3CC(C)(C)c4c3cnc3cc(Cl)nn43)cc2Cl)n1 (single isomer, unassigned) [Example 143, 2-chloro-N-(5-chloro-6-(2-methyl-2H-tetrazol-5-yl)pyridin-3-yl)-8,8-dimethyl-7,8-dihydro-6H-cyclopenta[e]pyrazolo[1,5-a]pyrimidine-6-carboxamide] | 100 to 1000
14 | Cc1cc(NC(=O)[C@H]2CC(C)(C)c3c2cnc2cc(F)nn32)cnc1-n1nccn1 (single isomer, unassigned) [Example 183] | 10 to 100
15 | CC1(C)C[C@@H](C(=O)Nc2cnc(-n3ncc(C4COC4)n3)c(Cl)c2)c2cnc3cc(Cl)nn3c21 (single isomer, unassigned) [Example 110, 2-chloro-N-(5-chloro-6-(4-(oxetan-3-yl)-2H-1,2,3-triazol-2-yl)pyridin-3-yl)-8,8-dimethyl-7,8-dihydro-6H-cyclopenta[e]pyrazolo[1,5-a]pyrimidine-6-carboxamide] | 10 to 100
16 | CC1(C)C[C@@H](C(=O)Nc2cnc(-n3nccn3)c(C(F)(F)F)c2)c2cnn3cc(Cl)nc3c21 (single isomer, unassigned) [Example 192, N-(6-(2H-1,2,3-triazol-2-yl)-5-(trifluoromethyl)pyridin-3-yl)-2-chloro-9,9-dimethyl-8,9-dihydro-7H-cyclopenta[d]imidazo[1,2-b]pyridazine-7-carboxamide] | 100 to 1000
17 | CC1(C)C[C@@H](C(=O)Nc2cnc(OC(F)F)c(C#N)c2)c2cnc3cc(C(F)F)nn3c21 (single isomer, unassigned) [Example 125, N-(5-cyano-6-(difluoromethoxy)pyridin-3-yl)-2-(difluoromethyl)-8,8-dimethyl-7,8-dihydro-6H-cyclopenta[e]pyrazolo[1,5-a]pyrimidine-6-carboxamide] | ≥ 1000
18 | CC1(C)C[C@@H](C(=O)Nc2cnc(-n3nccn3)c(C(F)(F)F)c2)c2cnc3cc(Cl)nn3c21 (single isomer, unassigned) [Example 45, N-(6-(2H-1,2,3-triazol-2-yl)-5˜(trifluoromethyl)pyridin-3-yl)-2-chloro-8,8-dimethyl-7,8-dihydro-6H-cyclopenta[e]pyrazolo[1,5-a]pyrimidine-6-carboxamide] | ≥ 1000
19 | CC1(C)CC(C(=O)Nc2cnc(-n3ncc(C#N)n3)c(Cl)c2)c2cnc3cc(Cl)nn3c21 (stereo not shown) [Example 137, 2-chloro-N-(5-chloro-6-(4-cyano-2H-1,2,3-triazol-2-yl)pyridin-3-yl)-8,8-dimethyl-7,8-dihydro-6H-cyclopenta[e]pyrazolo[1,5-a]pyrimidine-6-carboxamide] | ≥ 1000
